Data taken from PubChem BioAssay (NCI).
Where “and” joins values, the source holds several entries; their conditions need not be identical. Identical values can stand only once.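 Grown in 96-well plates, cells were treated for 48 hours with each compound at five concentrations. Insufficient inhibition: endpoint recorded as highest concentration tested. GI50: concentration for 50% inhibition of growth. At the TGI there is no net growth.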

Tests used:
Experiment in all cases: NCI-60 cell line screen, 48 h
HCT-116 colon = tested on: HCT-116 colon
HL-60(TB) leukemia = tested on: HL-60(TB) leukemia
HT29 colon = tested on: HT29 colon
LOX IMVI melanoma = tested on: LOX IMVI melanoma
MDA-MB-231 breast = tested on: MDA-MB-231 breast
MOLT-4 leukemia = tested on: MOLT-4 leukemia
OVCAR-8 ovarian = tested on: OVCAR-8 ovarian
RPMI-8226 leukemia = tested on: RPMI-8226 leukemia
SF-295 CNS = tested on: SF-295 CNS
SR leukemia = tested on: SR leukemia
U251 CNS = tested on: U251 CNS
UACC-257 melanoma = tested on: UACC-257 melanoma

Compound	TGI (HCT-116 colon)	TGI (HL-60(TB) leukemia) [µM]	TGI (HT29 colon)	TGI (LOX IMVI melanoma)	TGI (MDA-MB-231 breast)	TGI (MOLT-4 leukemia)	TGI (OVCAR-8 ovarian)	TGI (RPMI-8226 leukemia)	TGI (SF-295 CNS)	TGI (SR leukemia)	TGI (U251 CNS)	TGI (UACC-257 melanoma)	GI50 (HCT-116 colon)	GI50 (HL-60(TB) leukemia)	GI50 (HT29 colon)	GI50 (LOX IMVI melanoma)	GI50 (MOLT-4 leukemia)	GI50 (OVCAR-8 ovarian)	GI50 (RPMI-8226 leukemia)	GI50 (UACC-257 melanoma)
Cc1cccc2c1CC1(Cc3c(C)cccc3C1=O)C2=O	> 100 µM	> 100	> 100 µM	> 100 µM	> 100 µM	> 100 µM	> 100 µM	> 100 µM	> 100 µM	> 100 µM	> 100 µM	> 100 µM								
COc1ccc(OC)c2c1-c1nnnn1CCC2(C)C	> 100 µM	> 100	> 100 µM	> 100 µM	> 100 µM	> 100 µM	> 100 µM	> 100 µM	> 100 µM	> 100 µM	> 100 µM	> 100 µM								
CCN(CC)CCCNc1c2cc(OC)ccc2nc2cccc([N+](=O)[O-])c12	0.175 µM	0.511	0.453 µM	0.196 µM	0.319 µM	0.554 µM	0.264 µM	0.418 µM	0.796 µM	0.061 µM	0.432 µM	0.416 µM								
CC(=O)Nc1ccc2cc3c(nc2n1)c1cccnc1n3S(=O)(=O)c1ccccc1	> 100 µM	> 100	> 100 µM	> 100 µM	> 100 µM	> 100 µM	> 100 µM	> 100 µM	> 100 µM	> 100 µM	> 100 µM	> 100 µM								
COC(=O)/C=C/c1cc(OC)c2c(c1)C(C(=O)OC)C(c1ccc(O)c(OC)c1)O2 (stereo unspecified)	> 100 µM and > 46.7 µM and 19.7 µM		37.8 µM and 26.8 µM and 14.4 µM	> 100 µM and 22.3 µM and 25.3 µM	> 25.8 µM and 18.8 µM and 42.1 µM	> 100 µM and 16.7 µM	> 100 µM and > 72.2 µM and 21.6 µM	13.6 µM and > 60.8 µM and 15.6 µM	11.8 µM and 12.6 µM and 10 µM	> 25.7 µM and 3.91 µM	> 45 µM and > 54.2 µM and 48.3 µM	> 100 µM and 63.2 µM	4.22 µM and 3.67 µM and 1.1 µM	1.14 µM and 1.81 µM and 0.325 µM	16 µM and 9.17 µM and 3.77 µM	7.16 µM and 4.36 µM and 1.04 µM	5.39 µM and 4.7 µM and 1.94 µM	10.8 µM and 4.76 µM and 2.32 µM	2.94 µM and 3.93 µM and 1.69 µM	> 25.9 µM and 6.49 µM
FC(F)(F)c1ccc(N=NN2CCCC2)cc1	> 100 µM	> 100	> 100 µM	> 100 µM	> 100 µM	> 100 µM		> 100 µM	> 100 µM	> 100 µM	> 100 µM	> 100 µM								
CCOc1ccnc2c(OC)c(C)c3nc4ccccc4nc3c12	> 100 µM	> 100	> 100 µM	> 100 µM	> 100 µM	> 100 µM	> 100 µM	> 100 µM	> 100 µM	> 100 µM	> 100 µM	> 100 µM								
Oc1ccccc1/C=N/N1C(=S)N(c2ccccc2)C(=Nc2ccccc2)C1=Nc1ccccc1	26.5 µM	> 86.1	12.7 µM	36.2 µM	24.1 µM	> 89.5 µM	18.2 µM	> 72.8 µM	23.2 µM	> 81.2 µM	14.2 µM	> 68 µM								
CCOC1=NC(C(F)(F)F)(C(F)(F)F)N=C(/N=C(/N)N(C)C(C(C)C)P(=O)(OC(C)C)OC(C)C)O1 (stereo unspecified)	> 100 µM	80.1	> 100 µM	> 100 µM	> 100 µM	51.4 µM	> 100 µM	> 100 µM	> 100 µM	> 100 µM	> 100 µM	> 100 µM								
O=C(O)COc1cccc2ccccc(=O)c12	> 100 µM	> 100	> 100 µM	> 100 µM	> 100 µM	> 100 µM	> 100 µM		> 100 µM	> 100 µM	> 100 µM	> 100 µM								
[B]C(=O)NC(CC(C)C)C(=O)NC1c2ccsc2C(=O)C1O (stereo unspecified) (tested in a mixture with another compound)	> 100 µM	> 100	> 100 µM	> 100 µM	> 100 µM	> 100 µM	> 100 µM	> 100 µM	> 100 µM	> 100 µM	> 100 µM	> 100 µM								
O=C1C=C(NCCc2ccc(O)cc2)C(=O)C=C1NCCc1ccc(O)cc1	> 100 µM	71.2	> 100 µM	> 100 µM	> 100 µM	> 100 µM	> 100 µM	> 100 µM	> 100 µM	> 100 µM	92.5 µM	> 100 µM								
CN1CCN2CCN(C)CCN(CC1)CC2	> 100 µM	> 100	> 100 µM	> 100 µM	> 100 µM	> 100 µM	> 100 µM	> 100 µM	> 100 µM	> 100 µM	> 100 µM	> 100 µM								
ClC1(Cl)C2CCOC21n1cnc2ccccc21 (stereo unspecified)	> 100 µM	> 100	> 100 µM	> 100 µM	> 100 µM	> 100 µM	> 100 µM	> 100 µM	> 100 µM	> 100 µM	> 100 µM									
CN(C)CCNc1nc2c(c(=O)n(C)c(=O)n2C)n1C	> 100 µM	> 100	> 100 µM	> 100 µM	> 100 µM	> 100 µM	> 100 µM	> 100 µM	> 100 µM	> 100 µM	> 100 µM	> 100 µM								
CN1CCN(C(=S)N(C(=O)c2ccc(Cl)cc2)C2CCCCC2)CC1		> 100	> 100 µM	> 100 µM	> 100 µM	> 100 µM	> 100 µM	> 100 µM	> 100 µM	> 100 µM	> 100 µM	> 100 µM								
C[C@@H](Br)[C@@H]1CC[C@H]2c3[nH]c4ccccc4c3CCN2C1		39.5	67.8 µM	32.9 µM	41.1 µM	49.7 µM	> 100 µM	37.4 µM	47.8 µM	38.3 µM	55.8 µM	> 100 µM								
